Source: publication PMC7505949, “Structure-Guided Designing and Evaluation of Peptides Targeting Bacterial Transcription” (Frontiers in Bioengineering and Biotechnology, 2020)
Peptide text beside a SMILES is read from it.

Assays:
[1] = Storage stability in water by LC-MS; assay type: physicochemical; conditions: stored for over a year at 4°C, LC-MS (C18), observed vs calculated molecular weight
Procedure: The stability of all the designed peptides was analyzed using Liquid chromatography-mass spectrometry (LC-MS) using Agilent Technologies (model G6550A). […] Peptide 3 was injected in the C18 column equilibrated in a positive mode at a flow rate of 0.5 mL/min using water as a mobile phase.
As the interaction interface between RNAP β1β2 domain and the transcription factor (CarD^NTD and TRCF-RID) ([Westblade et al., 2010]; [Gulten and Sacchettini, 2013]) is relatively large, flat, solvent-exposed, and devoid of the binding pocket, it is challenging to design small molecule-based inhibitors. We therefore aimed to design the peptide-based RNAP β/transcription factor inhibitors by selecting the key residues involved in the interaction at the conserved PPI interface between RNAP β and transcription factor complex. The sequence and molecular weight of the designed peptides are mentioned in Table 1. PEP-FOLD3.1 ([Lamiable et al., 2016]), an online server, was used to predict the de novo structures of the designed peptides by running 100 simulations for each peptide. PEP-FOLD3.1 provides the information in the form of models which are generated by OPEP (Optimized Potential for Efficient structure Prediction) energy. […] The peptides were analyzed for their stability and solubility. […]

[2] = Solubility in water and aqueous buffer; assay type: physicochemical
Description: As the interaction interface between RNAP β1β2 domain and the transcription factor (CarD^NTD and TRCF-RID) ([Westblade et al., 2010]; [Gulten and Sacchettini, 2013]) is relatively large, flat, solvent-exposed, and devoid of the binding pocket, it is challenging to design small molecule-based inhibitors. We therefore aimed to design the peptide-based RNAP β/transcription factor inhibitors by selecting the key residues involved in the interaction at the conserved PPI interface between RNAP β and transcription factor complex. The sequence and molecular weight of the designed peptides are mentioned in Table 1. PEP-FOLD3.1 ([Lamiable et al., 2016]), an online server, was used to predict the de novo structures of the designed peptides by running 100 simulations for each peptide. PEP-FOLD3.1 provides the information in the form of models which are generated by OPEP (Optimized Potential for Efficient structure Prediction) energy. The topmost model with the lowest OPEP score having minimum energy and maximum stability for each peptide was selected for further computational analysis. The designed peptides were 7–8 amino acids in length and were commercially synthesized. The peptides were analyzed for their stability and solubility. All the peptides were soluble in water as well as in aqueous buffer with a solubility of > 10 mM.

Q: Which results are given for `CC[C@H](C)[C@H](NC(=O)[C@H](CCC(=O)O)NC(=O)CNC(=O)[C@@H](N)[C@@H](C)O)C(=O)N[C@@H](CCCCN)C(=O)N[C@@H](CO)C(=O)N[C@@H](CCC(N)=O)C(=O)N[C@H](C(=O)O)[C@@H](C)O` [Peptide 2] (H-TGEIKSQT-OH)?
A: Stability on storage [1]: highly stable; Solubility (in words) [2]: soluble in aqueous buffer
